Experimental data as given in patent publication US5854216A, “Marker for growth hormone-releasing factor receptors” (Universite de Montreal, priority 1996, dated 1998).
Ends that are not written are not given here. * marks the point of attachment. X1 = O=C(O)c1cc(C(=O)*)ccc1-c1c2ccc(=O)cc-2oc2cc(O)ccc12

Assays:
[1] = target: T1, GRF receptors ([^125 I-Tyr^10 ]hGRF(1-44)NH2 binding sites in rat adenopituitary) (Rattus norvegicus, UniProt Q02644); assay: Competitive binding assay with [^125 I-Tyr^10 ]hGRF(1-44)NH2 on anterior pituitary homogenates
T1 construct: from tissue; host or cells: rat anterior pituitary homogenate
T1 sequence (Q02644 23-423 isoform Q02644-2 limits assumed): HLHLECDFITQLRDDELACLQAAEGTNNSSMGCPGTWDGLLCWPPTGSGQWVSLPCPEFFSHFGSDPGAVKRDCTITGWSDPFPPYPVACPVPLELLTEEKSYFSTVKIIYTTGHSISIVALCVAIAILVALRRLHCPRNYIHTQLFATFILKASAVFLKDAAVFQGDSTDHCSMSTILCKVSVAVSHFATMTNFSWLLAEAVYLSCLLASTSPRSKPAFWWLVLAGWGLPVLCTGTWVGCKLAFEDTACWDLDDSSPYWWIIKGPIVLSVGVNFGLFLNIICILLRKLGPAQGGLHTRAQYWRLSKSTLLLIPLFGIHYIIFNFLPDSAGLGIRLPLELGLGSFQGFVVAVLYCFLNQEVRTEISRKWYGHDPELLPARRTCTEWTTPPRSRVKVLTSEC
Summary of the method: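 Rat anterior pituitary homogenates (70 to 75 μg protein) in 50 mM Tris-HCl pH 7.4 with 5 mM EDTA, 5 mM MgCl2, 0.42% BSA were competed with 35-50 pM radioligand against analogues at 0-1000 nM. Non-specific binding defined with 2.4 μM rGRF(1-29)NH2; 60 min at 23° C, stopped by centrifugation, pellet gamma-counted. hGRF(1-29)NH2 run in each experiment as reference.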

[2] = target: T2, GRF receptor (adenylate cyclase activity in rat adenopituitary) (Rattus norvegicus, UniProt Q02644); assay: Adenylate cyclase assay on anterior pituitary homogenates (cAMP by HPLC); assay type: biochemical
T2 construct: from tissue; host or cells: rat anterior pituitary homogenate
T2 sequence (Q02644 23-423 isoform Q02644-2 limits assumed): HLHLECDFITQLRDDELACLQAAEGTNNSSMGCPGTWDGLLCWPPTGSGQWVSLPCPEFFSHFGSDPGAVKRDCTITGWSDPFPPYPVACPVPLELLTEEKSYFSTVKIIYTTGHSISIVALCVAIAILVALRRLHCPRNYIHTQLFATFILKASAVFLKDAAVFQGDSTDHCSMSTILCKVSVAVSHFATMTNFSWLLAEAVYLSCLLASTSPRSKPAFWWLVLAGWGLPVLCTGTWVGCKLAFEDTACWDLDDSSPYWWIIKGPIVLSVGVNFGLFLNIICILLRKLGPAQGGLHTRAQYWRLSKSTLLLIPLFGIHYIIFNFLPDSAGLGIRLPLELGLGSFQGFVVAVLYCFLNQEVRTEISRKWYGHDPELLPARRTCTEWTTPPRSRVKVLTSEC
Procedure: The adenylate cyclase activity Nε-CF-[Lys^31 ]hGRF was performed on anterior pituitary homogenates as previously described (Lefrangois L. and Gaudreau P., J. Chromatogr., 1993, 619:116-120). Briefly, anterior pituitaries (pit.) were dissected out, rinsed and homogenized for 8 sec with a Micro Ultrasonic Cell Disrupter™, in ice-cold 20 mM Tris-HCl buffer (pH 7.5) containing 2 mM MgCl2 and 250 mM sucrose (1 pit./0.5 ml).
Samples of anterior pituitary homogenates (30-40 μg protein) were incubated in 1.5 ml Eppendorf™ tubes with 30 mM Tris-HCl, 5 mM MgCl2, 0.5 mM EGTA, containing 0.5 mM ATP, 1 mM IBMX, 10 μM GTP and an ATP regenerating system consisting of 2 mM creatine phosphate, 0.1 mg/ml creatine kinase and, 0.1 mg/ml myokinase in a final volume of 120 μl. Incubations were initiated by adding 20 μl of the homogenate to the reaction mixture which had previously been equilibrated at 37° C. for 2 min. The reactions were carried out for 8 min at 37° C. and stopped by heating the samples in boiling water for 4 min. Samples were centrifuged (12000 g, 5 min, 4° C.) and supernatants were filtered through 0.45 μm Millex HV4 ™ filters and transferred to autosampler vials for HPLC quantification of cAMP.

[3] = Solubility in water or buffer; assay type: physicochemical; details: distilled water or aqueous buffer
[4] = Storage stability / shelf life; assay type: physicochemical
[5] = Toxicity (statement only)
[6] = target: T3, GRF receptor of rat adenopituitary (rat, UniProt Q02644-2)
T3 sequence: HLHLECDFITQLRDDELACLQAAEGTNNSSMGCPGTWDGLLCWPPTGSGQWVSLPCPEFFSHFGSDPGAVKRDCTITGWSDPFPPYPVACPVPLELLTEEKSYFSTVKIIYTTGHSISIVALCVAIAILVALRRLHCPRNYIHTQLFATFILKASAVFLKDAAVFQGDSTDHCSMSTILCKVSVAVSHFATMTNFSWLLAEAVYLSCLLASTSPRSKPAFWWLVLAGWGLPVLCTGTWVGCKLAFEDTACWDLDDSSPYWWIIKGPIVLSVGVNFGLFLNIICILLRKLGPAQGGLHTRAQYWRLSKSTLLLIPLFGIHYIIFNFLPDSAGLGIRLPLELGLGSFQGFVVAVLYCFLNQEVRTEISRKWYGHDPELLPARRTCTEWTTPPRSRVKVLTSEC

[7] = target: T3, GRF receptor of rat adenopituitary; assay: displacement of 125I-Tyr10 hGRF(1-44)NH2 from rat anterior pituitary homogenate
Procedure: (§1) The binding of [^125I-Tyr^10]hGRF(1–44)NH_2 was performed on anterior pituitary homogenates as previously described (Gaudreau P. et al., J. Biol. Chem., 1992, 35:1864–1869). Briefly, anterior pituitaries (pit.) were dissected out, rinsed and homogenized for 8 sec with a Micro Ultrasonic Cell Disrupter™, in ice-cold 50 mM Tris-HCl buffer, pH 7.4, containing 5 mM MgCl_2 and 5 mM EDTA (1 pit./0.5 ml). These homogenates were used immediately. Competition studies were performed using 35–50 pM [^125I-Tyr^10]hGRF(1–44)NH_2 as radio-ligand, 50 µl of homogenate (70 to 75 µg of protein), and increasing concentrations of Nε-CF-[Lys^31]hGRF or other GRF analogues (0–1000 nM) or with 2.4 µM rGRF(1–29)NH_2 for determination of non-specific binding, in a total volume of 300 µl of Tris-HCl buffer, pH 7.4, containing 5 mM EDTA, 5 mM MgCl_2 and 0.42% BSA. Incubations were carried out at 23° C. for 60 min and stopped by centrifugation (12,000 g, 5 min, at 4° C.). The radioactivity content in the pellet was measured by gamma counting. The affinity of hGRF(1–29)NH_2 was tested in each experiment to assess the validity of the assay and determine the relative affinity of the analogues.
75 to 97% of their initial concentration are recovered at the end of the binding assay (Gaudreau P. et al., J. Biol. Chem., 1992, 35:1864–1869). The Ligand computerized program was used to analyse competition curves of all the GRF analogues reported in Tables 4, 7 and 11, and to determine their IC$50$ and Hill coefficient. The Hill values indicate that all these peptides bind to the high and low affinity GRF binding sites found in the anterior pituitary.

[8] = target: T3, GRF receptor of rat adenopituitary; assay: as above; remark: listed apart in the source
Procedure: as §1
75 to 97% of their initial concentration are recovered at the end of the binding assay (Gaudreau P. et al., J. Biol. Chem., 1992, 35:1864–1869). […]

affinity for adenopituitary GRF receptors (in words) [1]	Hill coef. ([1]; Table 4)	Relative affinity ([1]; Table 4, ratio IC50 of hGRF(1-29)NH2 /IC50 analogue) [%]	agonist character at the GRF receptor [2]	Relative activity ([2]; Table 5, ratio EC50 of hGRF(1-29)NH2 /EC50 analogue) [%]	solubility [3]	shelf life [4]	stability ([4]; protected from light and maintained at 4° C.)	adenylate cyclase activity: EC50 of cAMP accumulation (column head prints IC50) [6] [nM]	adenylate cyclase activity: Relative activity (%) [6] [%]	Relative affinity (%) against hGRF(1-29)NH2 [7] [%]	IC50 [8] [nM]	Molecule	toxicity [5] [% non-toxic]
high affinity	0.55 ± 0.03	73 ± 27	full GRF receptor agonist	55 ± 36	freely soluble	at least one year	stable	–	–	–	–	H-YADAIFTNSYRKVLGQLSARKLLQDIMSRQK(X1)GESNQERGARARL-NH2 [Nε-5-carboxyfluoresceinyl-[Lys^31]hGRF(1-44)NH2]	100
–	–	–	–	–	–	–	–	36.7	100	100	2.4	YADAIFTNSYRKVLGQLSARKLLQDIMSR-NH2 (ligand) [hGRF(1-29)NH2]	–
